Key:
Conditions in all cases: for Tumor Volume (mm3) (d 1): d1
[1] = system: transplanted tumor of human glioma cell U251; experiment: U251 transplanted tumor in nude mice
Protocol: (§1) U251 cells in a logarithmic growth phase were taken and subjected to a trypan blue exclusion experiment showing that the cell viability was more than 95%, then the cells were subjected to trypsinization, centrifugation, and supernatant removal. Then cell concentration was adjusted to 1×10^7/ml with matrigel, then each nude mouse was inoculated subcutaneously with 0.2 ml of cells at its right armpit and recorded as the first day of inoculation. When the tumor grows to be greater than or equal to 100 mm^3, the mice were randomly divided into 11 groups with 6 mice in each group: a model group, a cyclophosphamide group, isovaleryl spiramycin I groups with doses of 25, 50 and 100 mg/kg, isovaleryl spiramycin II groups with doses of 25, 50 and 100 mg/kg, and isovaleryl spiramycin III groups with doses of 25, 50 and 100 mg/kg. Each group was continuously administered intragastrically for 30 days with a dose of 20 ml/kg. The mice were sacrificed the next day after drug withdrawal and the indicators were tested. The long diameter and short diameter of the tumor, and the body weight of each mouse were recorded every 3 days from drug administration to nude mouse sacrifice.
(§2) The body weight of the nude mice and the long diameter (a) and short diameter (b) of the transplanted tumor were measured every 3 days, and the tumor volume (v), relative tumor volume (RTV) and relative tumor proliferation rate (T/C) are calculated respectively according to the following formulas, wherein V=a×b^2/2; RTV=V/V0 (V0 is the tumor volume before administration, V is the tumor volume before sacrifice), and T/C (%)=treatment group RTV/model control group RTV×100%.
(§3) Each mouse was weighed and sacrificed. After the tumor was completely stripped off from the body of the mouse, the non-tumor tissues such as blood stains and fat were removed to weigh the tumor and calculate the tumor growth inhibition rate. The average tumor weight of each group of mice is used as an indicator of efficacy. Tumor growth inhibition rate (%)=(1−the average tumor weight of the treatment group/the average tumor weight of the model group)×100%.

[2] = system: transplanted tumor of human non-small cell lung cancer cell A549; experiment: A549 transplanted tumor in nude mice
Protocol: as §1, with “A549” for “U251”
as §2, §3

[3] = system: transplanted tumor of human renal clear cell adenocarcinoma cell 786-O; experiment: 786-O transplanted tumor in nude mice
Protocol: as §1, with “786-O” for “U251”
as §2, §3

[4] = U251, high dose (100 mg/kg in method) i.g. 30 days
[5] = U251, low dose (25 mg/kg in method) i.g. 30 days
[6] = U251, medium dose (50 mg/kg in method) i.g. 30 days
[7] = A549, high dose (100 mg/kg in method) i.g. 30 days
[8] = A549, low dose (25 mg/kg in method) i.g. 30 days
[9] = A549, medium dose (50 mg/kg in method) i.g. 30 days
[10] = 786-O, high dose (100 mg/kg in method) i.g. 30 days
[11] = 786-O, low dose (25 mg/kg in method) i.g. 30 days
[12] = 786-O, medium dose (50 mg/kg in method) i.g. 30 days

## CO[C@@H]1[C@@H](O[C@@H]2O[C@H](C)[C@@H](O[C@H]3C[C@@](C)(O)[C@@H](OC(=O)CC(C)C)[C@H](C)O3)[C@H](N(C)C)[C@H]2O)[C@@H](CC=O)C[C@@H](C)[C@@H](O[C@H]2CC[C@H](N(C)C)[C@@H](C)O2)/C=C/C=C/C[C@@H](C)OC(=O)C[C@H]1O [Isovaleryl spiramycin I, isovaleryl spiramycin I]
[1]; [4]
  Relative Tumor Proliferation Rate (T/C): 25.80%
  tumor growth inhibition rate: 69.21%
[1]; [5]
  Relative Tumor Proliferation Rate (T/C): 76.40%
  tumor growth inhibition rate: 30.94%
[1]; U251, low, medium and high doses, P<0.05
  tumor volume and relative tumor volume compared with the model group: significantly lower
[1]; [6]
  Relative Tumor Proliferation Rate (T/C): 44.54%
  tumor growth inhibition rate: 44.53%
[1]; U251 nude mice, 25 mg/kg
  Inhibition Rate (%): 30.94%
  Relative Tumor Proliferation Rate (T/C): 76.40%
  Relative Tumor Volume (RTV): 12.69 ± 1.08
  Tumor Weight: 0.96 ± 0.08 g
  Tumor Volume (mm3) (d 1): 122.81 ± 10.35 mm3
  Tumor Volume (mm3) (d30): 1550.33 ± 72.99 mm3
[1]; U251 nude mice, 50 mg/kg
  Inhibition Rate (%): 44.53%
  Relative Tumor Proliferation Rate (T/C): 44.54%
  Relative Tumor Volume (RTV): 10.67 ± 1.09
  Tumor Weight: 0.77 ± 0.09 g
  Tumor Volume (mm3) (d 1): 124.39 ± 10.31 mm3
  Tumor Volume (mm3) (d30): 930.42 ± 204.72 mm3
[1]; U251 nude mice, 100 mg/kg
  Inhibition Rate (%): 69.21%
  Relative Tumor Proliferation Rate (T/C): 25.80%
  Relative Tumor Volume (RTV): 10.05 ± 0.71
  Tumor Weight: 0.43 ± 0.01 g
  Tumor Volume (mm3) (d 1): 124.88 ± 6.57 mm3
  Tumor Volume (mm3) (d30): 537.02 ± 93.66 mm3
[1]; mouse, in vivo
  mouse weight compared with the model group: no significant changes
[1]; mouse, in vivo, 25 mg/kg
  Body Weight (g) (d1): 21.03 ± 0.55 g
  Body Weight (g) (d30): 21.09 ± 0.53 g
[1]; mouse, in vivo, 50 mg/kg
  Body Weight (g) (d1): 20.78 ± 0.66 g
  Body Weight (g) (d30): 21.08 ± 0.54 g
[1]; mouse, in vivo, 100 mg/kg
  Body Weight (g) (d1): 21.10 ± 0.35 g
  Body Weight (g) (d30): 20.86 ± 0.66 g
[2]; [7]
  Relative Tumor Proliferation Rate (T/C): 28.35%
  tumor growth inhibition rate: 69.52%
[2]; [8]
  Relative Tumor Proliferation Rate (T/C): 67.18%
  tumor growth inhibition rate: 24.00%
[2]; A549, low, medium and high doses, P<0.05
  tumor volume and relative tumor volume compared with the model group: significantly lower
[2]; [9]
  Relative Tumor Proliferation Rate (T/C): 41.93%
  tumor growth inhibition rate: 58.10%
[2]; A549 nude mice, 25 mg/kg
  Inhibition Rate (%): 24.00%
  Relative Tumor Proliferation Rate (T/C): 67.18%
  Relative Tumor Volume (RTV): 10.91 ± 2.63
  Tumor Weight: 1.82 ± 0.19 g
  Tumor Volume (mm3) (d 1): 111.89 ± 12.17 mm3
  Tumor Volume (mm3) (d30): 1227.24 ± 329.84 mm3
[2]; A549 nude mice, 50 mg/kg
  Inhibition Rate (%): 58.10%
  Relative Tumor Proliferation Rate (T/C): 39.42%
  Relative Tumor Volume (RTV): 6.40 ± 1.75
  Tumor Weight: 1.00 ± 0.44 g
  Tumor Volume (mm3) (d 1): 119.73 ± 5.73 mm3
  Tumor Volume (mm3) (d30): 750.44 ± 220.77 mm3
[2]; A549 nude mice, 100 mg/kg
  Inhibition Rate (%): 69.52%
  Relative Tumor Proliferation Rate (T/C): 28.35%
  Relative Tumor Volume (RTV): 4.60 ± 3.69
  Tumor Weight: 0.73 ± 0.45 g
  Tumor Volume (mm3) (d 1): 110.27 ± 11.43 mm3
  Tumor Volume (mm3) (d30): 475.83 ± 355.37 mm3
[2]; mouse, in vivo
  mouse weight compared with the model group: no significant changes
[2]; mouse, in vivo, 25 mg/kg
  Body Weight (g) (d1): 21.54 ± 1.27 g
  Body Weight (g) (d30): 24.20 ± 1.33 g
[2]; mouse, in vivo, 50 mg/kg
  Body Weight (g) (d1): 21.48 ± 1.46 g
  Body Weight (g) (d30): 25.56 ± 1.67 g
[2]; mouse, in vivo, 100 mg/kg
  Body Weight (g) (d1): 21.36 ± 1.82 g
  Body Weight (g) (d30): 24.47 ± 1.98 g
[3]; 786-O nude mice, 25 mg/kg
  Inhibition Rate (%): 34.70%
  Relative Tumor Proliferation Rate (T/C): 37.88%
  Relative Tumor Volume (RTV): 6.99 ± 0.83
  Tumor Weight: 1.40 ± 0.40 g
  Tumor Volume (mm3) (d 1): 96.85 ± 9.98 mm3
  Tumor Volume (mm3) (d30): 677.21 ± 58.76 mm3
[3]; 786-O nude mice, 50 mg/kg
  Inhibition Rate (%): 39.22%
  Relative Tumor Proliferation Rate (T/C): 37.19%
  Relative Tumor Volume (RTV): 6.86 ± 1.01
  Tumor Weight: 1.31 ± 0.35 g
  Tumor Volume (mm3) (d 1): 96.82 ± 8.52 mm3
  Tumor Volume (mm3) (d30): 664.44 ± 73.49 mm3
[3]; 786-O nude mice, 100 mg/kg
  Inhibition Rate (%): 64.36%
  Relative Tumor Proliferation Rate (T/C): 36.87%
  Relative Tumor Volume (RTV): 6.81 ± 0.31
  Tumor Weight: 0.76 ± 0.13 g
  Tumor Volume (mm3) (d 1): 103.25 ± 9.71 mm3
  Tumor Volume (mm3) (d30): 702.74 ± 37.66 mm3
[3]; [10]
  Relative Tumor Proliferation Rate (T/C): 36.89%
  tumor growth inhibition rate: 64.36%
[3]; [11]
  Relative Tumor Proliferation Rate (T/C): 37.88%
  tumor growth inhibition rate: 34.70%
[3]; 786-O, low, medium and high doses, P<0.05
  tumor volume and relative tumor volume compared with the model group: significantly lower
[3]; [12]
  Relative Tumor Proliferation Rate (T/C): 37.19%
  tumor growth inhibition rate: 39.22%
[3]; mouse, in vivo
  mouse weight compared with the model group: no significant changes
[3]; mouse, in vivo, 25 mg/kg
  Body Weight (g) (d1): 21.87 ± 0.89 g
  Body Weight (g) (d30): 22.95 ± 0.88 g
[3]; mouse, in vivo, 50 mg/kg
  Body Weight (g) (d1): 22.00 ± 0.94 g
  Body Weight (g) (d30): 22.82 ± 0.64 g
[3]; mouse, in vivo, 100 mg/kg
  Body Weight (g) (d1): 21.88 ± 0.54 g
  Body Weight (g) (d30): 23.00 ± 0.67 g

Reference: US20200163984A1, “USE OF ISOVALERYL SPIRAMYCIN I, II AND/OR III IN MANUFACTURING MEDICAMENT FOR TREATING AND/OR PREVENTING TUMOR, AND MEDICAMENT” (SHENYANG FUYANG PHARMACEUTICAL TECHNOLOGY CO., LTD., priority 2017, published 2020)
